Experimental data: patent publication US11390900B2, “Antimicrobial cartridges and processes for multiplexed antimicrobial susceptibility testing” (priority 2018, dated 2022)
Converted amounts (≈) assume the structure as drawn. Read-outs that look alike come from different tables or passages of the source.

Columns and labels:
E. faecalis 29212 = conditions: MIC range, cited from earlier work
patient sample microbes [1] = assay: AST MIC results for antimicrobial panel 2 (384-well panel from Master Plate vs 96-well panel); assay type: cell-based; conditions: for MICs obtained from panel made from Master Plate: antimicrobial panel 2, 384 well patient cartridge; for MICs obtained from 96-well Antibiotic Panel: antimicrobial panel 2, standard 96 well AST assay plate
Source text: (§1) An assay setup comprises preparation of patient (target) cartridge by dispensing antimicrobials were from the master cartridge or intermediate serial dilution cartridges into one or more 384 reservoir patient cartridge, each antimicrobial in about 7 serial dilutions in triplicate, and covering the dynamic range of each antimicrobial that is known to be effective and therefore should be reported. The dilution range included the expected minimum inhibitory concentration (MIC) for each antimicrobial. But most importantly, dilution ranges, that is, antimicrobial concentrations beyond the range known to be effective are included in the patient cartridge as per the present invention.
(§2) The remaining reservoirs of the 384 well patient cartridge are utilized for setting up test controls: a no-antimicrobial control (negative control) was included for each antimicrobial compound; and a positive control was included for each antimicrobial set, where a microorganism that is not susceptible to the antimicrobial was added to the well. Each control set was also dispensed at least in duplicate per 384 well cartridge. Additional test controls may be included as deemed necessary by one of skill in the art. Equal amount of a patient sample was dispensed to each of the wells in the cartridge, except in the wells designated for no-sample control, if included. The patient cartridge was ready for determination of susceptibility of microbes from the patient sample to the twelve antimicrobials at the range of concentrations applied, simultaneously. Multiple such plates can be set up in parallel for testing samples from multiple patients, each patient sample per plate. An AST assay was performed on the prepared patient cartridges.
(§3) First, three master plates are loaded by the user onto chilled plate holders (set to 4° C.). These consist of one Broad Spectrum, one Gram-Positive and one Gram-Negative antibiotic plate. Next the bulk reagents and pipette tips are loaded on tube rack. Master and bulk reagent pipette tips and sample dilution tray are reloaded every 12 samples. For every set of tests, up to four Patient Samples in tubes and up to four 384-well Target Plates (Patient plate) are loaded.
(§4) Antibiotics are transferred from Broad Spectrum Master Plate to Target Plate(s). Antibiotics are “stamped” according to FIG. 10A-B. The inoculator tips should be placed back in the same position of the Broad Spectrum Tip Box for use on subsequent target plates, but should only be used for same antibiotics to avoid cross contamination.
(§5) Antimicrobials are transferred from Gram-Positive OR Gram-Negative Master Plate to Target Plate(s) and the antibiotics are “stamped” according to FIG. 11A-B. The inoculator should place tips back in the same position of the correct tip box for use on subsequent target plates. Good care is taken such that any cross contamination is prevented.
(§6) Using new tips from the Sample Tip Box, 50 μL of diluted patient sample are transferred into Target Plate according to Table Four, this is done with a “jet dispense” to avoid cross contamination. After the Patient Sample has been transferred to each well on the Target Plate, the tips should be disposed of to avoid cross contamination. The above steps are repeated for each additional Patient Sample and Target Plate.
(§7) Shown in Table 6 and Table 7, MIC results for antimicrobial panels 1 and 2 respectively using a master cartridge format and a 384 well patient cartridge (column 3) agrees reliably with that run by standard 96 well AST assay plate (right hand column).

patient sample microbes [2] = conditions: antimicrobial panel 2, MIC range; cited from earlier work
S. aureus 29213 = conditions: MIC range, cited from earlier work
patient sample microbes [3] = conditions: antimicrobial panel 1, MIC range; cited from earlier work
patient sample microbes [4] = assay: AST MIC results for antimicrobial panel 1 (384-well panel from Master Plate vs 96-well panel); assay type: cell-based; conditions: for MICs obtained from panel made from Master Plate: antimicrobial panel 1, 384 well patient cartridge; for MICs obtained from 96-well Antibiotic Panel: antimicrobial panel 1, standard 96 well AST assay plate
Source text: as §1, §2, §3, §4, §5, §6, §7

E. coli 25922 = conditions: MIC range, E. coli 25922, Gram negative panel; cited from earlier work
[5] = system: clinical isolate of S. aureus; assay: Broth microdilution reference method MIC; assay type: cell-based; conditions: Staphylococcus aureus, read-out: MICs obtained from the broth microdilution reference method
Protocol: The antibiotics shown are vancomycin, daptomycin, ceftaroline and levofloxacin, of which the MICs obtained from the broth microdilution reference method for this strain were 0.5, 0.25, 0.12, and 0.25 μg/ml, respectively. A clinical isolate of S. aureus was used. Data represents the TRF signal in RFUs. Graphs in the top row contain data from 384-well plates. Graphs in the bottom row contain data from 96-well plates.

K. pneumoniae 700603 = conditions: MIC range, K. pneumoniae 700603, Gram negative panel; cited from earlier work
[6] = E. faecalis 29212, Gram positive panel
[7] = E. faecalis 29212, Gram negative panel
[8] = S. aureus 29213, Gram positive panel
[9] = S. aureus 29213, Gram negative panel

CO[C@H]1/C=C/O[C@@]2(C)Oc3c(C)c(O)c4c(O)c(c(/C=N/N5CCN(C)CC5)c(O)c4c3C2=O)NC(=O)/C(C)=C\C=C\[C@H](C)[C@H](O)[C@@H](C)[C@@H](O)[C@@H](C)[C@H](OC(C)=O)[C@@H]1C [Rifampin]
CLSI-Defined QC Range (E. faecalis 29212; [6]): 0.5 to 4 µg/mL | MICs obtained from panel made from Master Plate (patient sample microbes [1]): ≤ 0.25 µg/mL | MICs obtained from 96-well Antibiotic Panel (patient sample microbes [1]): 0.004 µg/mL | Quality Control Range (patient sample microbes [2]): 0.004-0.015

CC[C@H]1OC(=O)[C@H](C)[C@@H](O[C@H]2C[C@@](C)(OC)[C@@H](O)[C@H](C)O2)[C@H](C)[C@@H](O[C@@H]2O[C@H](C)C[C@H](N(C)C)[C@H]2O)[C@](C)(O)C[C@@H](C)C(=O)[C@H](C)[C@@H](O)[C@]1(C)O [Erythromycin]
CLSI-Defined QC Range (E. faecalis 29212; [6]): 1 to 4 µg/mL

C[C@@H](O)[C@H]1C(=O)N2C(C(=O)O)=C(S[C@@H]3CN[C@H](C(=O)N(C)C)C3)[C@H](C)[C@H]12 [Meropenem]
CLSI-Defined QC Range (E. faecalis 29212; [7]): 2 to 8 µg/mL

Cc1onc(-c2ccccc2)c1C(=O)N[C@@H]1C(=O)N2[C@@H]1SC(C)(C)[C@@H]2C(=O)O [Oxacillin]
CLSI-Defined QC Range (S. aureus 29213; [8]): 0.12 to 0.5 µg/mL | MICs obtained from panel made from Master Plate (patient sample microbes [1]): 0.5 µg/mL | MICs obtained from 96-well Antibiotic Panel (patient sample microbes [1]): 0.5 µg/mL | Quality Control Range (patient sample microbes [2]): 0.12-0.5

Penicillin
CLSI-Defined QC Range (S. aureus 29213; [8]): 0.25 to 2 µg/mL

CO/N=C(\C(=O)N[C@@H]1C(=O)N2C(C(=O)O)=C(CSc3nc(=O)c(=O)[nH]n3C)CS[C@H]12)c1csc(N)n1 [Ceftriaxone]
Quality Control Range (patient sample microbes [3]): 0.03-0.12 | CLSI-Defined QC Range (S. aureus 29213; [9]): 1 to 8 µg/mL | MICs obtained from panel made from Master Plate (patient sample microbes [1]): 2 µg/mL | MICs obtained from 96-well Antibiotic Panel (patient sample microbes [1]): 4 µg/mL | MICs obtained from panel made from Master Plate (patient sample microbes [4]): ≤ 0.125 µg/mL | MICs obtained from 96-well Antibiotic Panel (patient sample microbes [4]): ≤ 0.12 µg/mL | Quality Control Range (patient sample microbes [2]): 1-8

CO/N=C(\C(=O)N[C@@H]1C(=O)N2C(C(=O)O)=C(COC(C)=O)CS[C@H]12)c1csc(N)n1 [Cefotaxime]
CLSI-Defined QC Range (S. aureus 29213; [9]): 1 to 4 µg/mL

NC[C@H]1O[C@H](O[C@H]2[C@H](O)[C@@H](O[C@H]3O[C@H](CO)[C@@H](O)[C@H](N)[C@H]3O)[C@H](N)C[C@@H]2N)[C@H](N)C[C@@H]1O [Tobramycin]
CLSI-Defined QC Range (E. faecalis 29212; [7]): 8 to 32 µg/mL | Quality Control Range (patient sample microbes [3]): 0.25-1 | MICs obtained from panel made from Master Plate (patient sample microbes [4]): 0.5 µg/mL | MICs obtained from 96-well Antibiotic Panel (patient sample microbes [4]): 1 µg/mL

CO/N=C(\C(=O)N[C@@H]1C(=O)N2C(C(=O)O)=C(COC(N)=O)CS[C@H]12)c1ccco1 [Cefuroxime]
CLSI-Defined QC Range (E. coli 25922): 2 to 8 µg/mL

CN(C)[C@@H]1C(O)=C(C(N)=O)C(=O)[C@@]2(O)C(O)=C3C(=O)c4c(O)c(NC(=O)CN5CCCC5)cc(F)c4C[C@H]3C[C@@H]12 [Eravacycline]
CLSI-Defined QC Range (E. faecalis 29212; [6]): 0.016 to 0.06 µg/mL | CLSI-Defined QC Range (E. coli 25922): 0.03 to 0.12 µg/mL

C[C@H]1COc2c(N3CCN(C)CC3)c(F)cc3c(=O)c(C(=O)O)cn1c23 [Levofloxacin]
MICs obtained from panel made from Master Plate (patient sample microbes [1]): ≤ 0.25 µg/mL | MICs obtained from 96-well Antibiotic Panel (patient sample microbes [1]): 0.25 µg/mL | MICs obtained from panel made from Master Plate (patient sample microbes [4]): ≤ 0.25 µg/mL | MICs obtained from 96-well Antibiotic Panel (patient sample microbes [4]): ≤ 0.06 µg/mL | MIC ([5]; clinical isolate of S. aureus): 0.25 µg/mL (≈ 0.692 µM)

CN[C@H](CC(C)C)C(=O)N[C@H]1C(=O)N[C@@H](CC(N)=O)C(=O)N[C@H]2C(=O)N[C@H]3C(=O)N[C@H](C(=O)N[C@H](C(=O)O)c4cc(O)cc(O)c4-c4cc3ccc4O)[C@H](O)c3ccc(c(Cl)c3)Oc3cc2cc(c3O[C@@H]2O[C@H](CO)[C@@H](O)[C@H](O)[C@H]2O[C@H]2C[C@](C)(N)[C@H](O)[C@H](C)O2)Oc2ccc(cc2Cl)[C@H]1O [Vancomycin]
CLSI-Defined QC Range (S. aureus 29213; [8]): 0.5 to 2 µg/mL | MIC [5]: 0.5 µg/mL (≈ 0.345 µM)

CC1(C)S[C@@H]2[C@H](NC(=O)[C@H](N)c3ccc(O)cc3)C(=O)N2[C@H]1C(=O)O [Amoxicillin (alone), Amoxicillin]
CLSI-Defined QC Range (K. pneumoniae 700603): >128 µg/mL
